Reference: patent US20150099645A1, “MEANS AND METHODS FOR DIAGNOSTICS AND TH[…] DISEASES” (priority 2012, published 2015)

Assays:
T cells (CD3+) = assay: GVHD mouse model, LiCl treatment of allogeneic mice, CD3+ T cells of spleen counted by flow cytometry; type: in vivo; conditions: 2.0 mg/kg LiCl once a day, day 3 post-transplant
Experimental: Mice are divided into 3 groups (Untreated, Syngeneic and Allogeneic) per time point with 6-12 mice per group. The untreated group mice (without irradiation) were injected with plain medium. The syngeneic group irradiated (600 rads) Balb/c mice were injected with splenocytes (30×10̂6) from matched donor Balb/c mice. The allogeneic group irradiated (600 rads) Balb/c mice were injected with splenocytes (30×10̂6) from unmatched donor C57Bl/6 mice. An additional 2-3 mice in each group were injected with 2.0 mg/kg LiCl (dissolved 1:2 LiCl:PBS), once a day from day 1 to day 5 post-transplant, sacrificed at days 3 and 5.
Total T cells (CD3+) were collected from spleens of mice of the 3 groups of the GVHD model as described above. Cells were stained for CD3 and counted by Flow Cytometry.
In order to explore the effect of GSK-3β activation state on T-cell proliferation, the GVHD model mice were treated with Lithium chloride (LiCl). Lithium chloride (LiCl) is known to affect GSK-3β activation state by regulating its phosphorylation state. Lithium chloride (LiCl) treatments were given to a separate group of allogeneic mice.

[1] = tested on: C57Bl/6 and Balb/c splenocytes; assay: Mixed lymphocyte reaction, XTT proliferation assay; type: cell-based, mouse; conditions: for proliferation level: versus control (0 mM)
Experimental: Splenocytes were harvested from untreated Balb/c and C57BL/6 mice. C57BL/6 cells were incubated in a flat bottom 96 well plate for 96 h with either irradiated (1500 rads) or not irradiated Balb/c cells as indicated, at the indicated concentrations. XTT reagent for proliferation assay was added 24 h before reading. Plate was read at 620 nm.
Splenocytes were collected from spleens of C57Bl/6 and Balb/c mice and cultured ex-vivo and assayed for proliferation by XTT (tetrazolium salt). The C57Bl/6 and Balb/c cells were cultured ex-vivo together to mimic a GVHD reaction. The cells were cultured in 3 groups, having different cell concentrations: • 2×2: 2×10̂5 C57Bl/6 and 2×10̂5 balb/c cells • 1×1: 1×10̂5 C57Bl/6 and 1×10̂5 balb/c cells • 2×*2: 2×10̂5 C57Bl/6 and 2×10̂5 irradiated balb/c cells
In order to test the effect of GSK-3β activation state on cell proliferation, Lithium Chloride (a known inhibitor of GSK-3β) was added at different concentrations. […] Furthermore, it can be seen that the effect of LiCl depends on the confluence (concentration) of cells.

Structure (SMILES): [Cl-].[Li+] [LiCl, Lithium chloride]
- amount of T-cells (T cells (CD3+)): increased
- proliferation level ([1]; 12.5 mM LiCl, 2×2 group (2×10^5 C57Bl/6 and 2×10^5 balb/c cells)): significantly lower
- proliferation level ([1]; 25 mM LiCl, 1×1 group (1×10^5 C57Bl/6 and 1×10^5 balb/c cells)): significantly higher
- proliferation level ([1]; 25 mM LiCl, 2×2 group): significantly higher
- effect on proliferation ([1]; doses smaller than 12.5 mM): no apparent effect
